Where two headings read alike, the source gives them in different places. Where a SMILES comes first, the peptide text is derived from it. [ ]: non-standard residue; d: D form. The star is where a group is joined. dPhe(4-Cl) = N[C@H](Cc1ccc(Cl)cc1)C(=O)O; d2Nal = N[C@H](Cc1ccc2ccccc2c1)C(=O)O; Lys(iPr) = CC(C)NCCCC[C@H](N)C(=O)O; d3Pal = N[C@H](Cc1cccnc1)C(=O)O; Nicotinoyl = O=C(c1cccnc1)*
Experiments:
human GnRH receptor = molecular target: T1, human GnRH receptor (Homo sapiens, UniProt P30968); assay: Radioligand binding, 125I-GnRH-A displacement, membranes of HEK 293 cells with human GnRH receptor
T1 construct: expressed in transfected cells; host or cells: HEK 293 (hGnRH-R/293, from Dr. Stuart Sealfon)
T1 sequence (P30968 1-328): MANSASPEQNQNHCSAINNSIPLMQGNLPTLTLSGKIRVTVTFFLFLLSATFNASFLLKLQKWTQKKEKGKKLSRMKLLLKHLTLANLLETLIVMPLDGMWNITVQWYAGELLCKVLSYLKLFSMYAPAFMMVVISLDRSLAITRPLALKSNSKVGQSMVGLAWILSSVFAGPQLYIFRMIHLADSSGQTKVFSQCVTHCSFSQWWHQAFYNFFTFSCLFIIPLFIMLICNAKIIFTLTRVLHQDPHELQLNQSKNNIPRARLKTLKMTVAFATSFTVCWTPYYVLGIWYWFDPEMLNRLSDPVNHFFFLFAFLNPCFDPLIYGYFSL
Summary of the method: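 Bound tracer was separated by filtration through polyethyleneimine-soaked GF/C filters and counted by liquid scintillation. IC50 from curve fitting; other species were tested under the same conditions.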

mouse GnRH receptor = molecular target: T2, mouse GnRH receptor (Mus musculus, UniProt Q01776); assay: Radioligand binding, 125I-GnRH-A, 293 cells expressing mouse GnRH receptors
T2 construct: expressed in transfected cells; host or cells: 293 cells
T2 sequence (Q01776 1-327): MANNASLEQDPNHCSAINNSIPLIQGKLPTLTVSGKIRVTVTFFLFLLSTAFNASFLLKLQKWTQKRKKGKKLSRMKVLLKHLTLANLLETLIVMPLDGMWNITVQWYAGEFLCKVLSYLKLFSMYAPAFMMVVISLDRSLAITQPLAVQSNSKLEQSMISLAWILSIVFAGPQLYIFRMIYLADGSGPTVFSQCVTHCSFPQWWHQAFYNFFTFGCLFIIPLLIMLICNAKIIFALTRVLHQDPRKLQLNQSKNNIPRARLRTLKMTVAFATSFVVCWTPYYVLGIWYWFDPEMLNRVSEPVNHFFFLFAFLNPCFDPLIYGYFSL
Summary of the method: (§1)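 Bound label captured on 0.1% polyethyleneimine-treated GF/C filters, washed three times with PBS, counted. IC50 derived; identical set-up for every species.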

[1] = Pharmacokinetic studies / bioavailability in rats; type: in vivo, rat; settings: for Cmax / Tmax: po
rat GnRH receptor = molecular target: T3, rat GnRH receptor (Rattus norvegicus, UniProt P30969); assay: Radioligand binding, 125I-GnRH-A, rat pituitary membranes; set-up: membranes were prepared from rat pituitary; from tissue; host or cells: rat pituitary
T3 sequence (P30969 1-327): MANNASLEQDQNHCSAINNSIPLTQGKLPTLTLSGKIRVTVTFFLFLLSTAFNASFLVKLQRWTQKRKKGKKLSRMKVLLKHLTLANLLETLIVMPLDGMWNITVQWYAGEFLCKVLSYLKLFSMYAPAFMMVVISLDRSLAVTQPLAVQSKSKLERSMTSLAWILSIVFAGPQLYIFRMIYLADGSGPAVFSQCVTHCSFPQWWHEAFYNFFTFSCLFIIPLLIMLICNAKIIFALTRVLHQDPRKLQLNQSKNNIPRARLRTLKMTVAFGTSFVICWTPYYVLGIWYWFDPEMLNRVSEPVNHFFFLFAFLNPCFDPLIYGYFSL
Summary of the method: as §1

[2] = means ± SE of at least three experiments performed in duplicate, read-out: Human IC50
[3] = male, rat, plasma, iv, 10 mg/kg, rat male
[4] = male, rat, plasma, 20 mg/kg, rat male, p.o. 20 mg/kg, vehicle per footnote (DMSO/cremophor/saline)
[5] = female, rat, plasma, 10 mg/kg, rat female, p.o. 10 mg/kg, 5 mg/ml solution in 10% DMSO 10% cremophor 80% saline
[6] = female, rat, plasma, rat female
[7] = rat female, 5 mg/ml solution in 10% DMSO 10% cremophor 80% saline
[8] = plasma, ip, rat, i.p. 20 mg/kg, read-out: Bioavailability after i.p. dosing
[9] = rat male, p.o. 20 mg/kg, vehicle per footnote (DMSO/cremophor/saline)
[10] = female, rat, plasma, 20 mg/kg, rat female, p.o. 20 mg/kg, 10 mg/ml solution in 10% DMSO 10% cremophor 80% saline
[11] = male, rat, plasma, 20 mg/kg, castrated male rats, p.o. 20 mg/kg, 10 mg/ml solution in 10% DMSO 10% cremophor 80% saline
[12] = male, rat, plasma, 20 mg/kg, rat male, p.o. 20 mg/kg, 40 mg/ml in PEG400
[13] = rat female, p.o. 20 mg/kg, 10 mg/ml solution in 10% DMSO 10% cremophor 80% saline
[14] = second value marked * (mostly in parentheses), asterisk not explained, read-out: hGnRH IC50, value marked *
[15] = means ± SE of at least three experiments performed in duplicate, read-out: Mouse IC50
[16] = means ± SE of at least three experiments performed in duplicate, read-out: Rat IC50
[17] = male, rat, plasma, 10 mg/kg, rat male, p.o. 10 mg/kg, vehicle per footnote

| SMILES | IC50 (mouse GnRH receptor; read-out: mGnRH IC50) | half-life [1, 3] | IC50 (rat GnRH receptor; read-out: rGnRH IC50) | Fp.o. [1, 9] | IC50 (human GnRH receptor; [2]) | IC50 (human GnRH receptor; read-out: hGnRH IC50) | Cmax [1, 4] | Tmax [1, 4] | IC50 (human GnRH receptor; [14]) | IC50 (mouse GnRH receptor; [15]) | IC50 (rat GnRH receptor; [16]) | other results |
| --- | --- | --- | --- | --- | --- | --- | --- | --- | --- | --- | --- | --- |
| COc1cccc(OC)c1NC(=O)c1ccc(Cc2cc3c(cc2C)C(C)(C)CCC3(C)C)o1 [Compound 20] | 20 nM | 0.867 h | 5 nM |  | 8 ± 0.9 nM | 8 nM | 200 nM | 1 h |  |  |  |  |
| COc1cc(OC)c(NC(=O)c2ccc(Cc3cc4c(cc3C)C(C)(C)CCC4(C)C)o2)c(OC)c1 [Compound 134] | 3 nM | 1.4 h | 3 nM | 8% (20 mg/kg)^5 |  | 6 nM | 610 nM | 1 h |  |  |  | Fp.o. ([1]; castrated male rats, p.o. 20 mg/kg, 10 mg/ml solution in 10% DMSO 10% cremophor 80% saline): 23% (20 mg/kg)^1; Cmax [1, 10]: 2310 nM; Tmax [1, 10]: 1 h; half-life [1, 6]: 1.7 h; half-life ([1]; male, rat, plasma, castrated male rats): 1.7 h; Cmax [1, 11]: 1980 nM; Tmax [1, 11]: 1.5 h; Cmax [1, 12]: 230 nM; bioavailability [1, 8]: 38%; Fp.o. [1, 13]: 24% (20 mg/kg)^1 |
| Cc1cnc(CNC(=O)c2ccc(Cc3cc4c(cc3C)C(C)(C)CCC4(C)C)o2)cn1 [Compound 13] | 120 nM | 1.5 h | 60 nM |  | 110 ± 20 nM | 110 nM |  |  | 40 nM | 120 ± 20 nM | 60 ± 8 nM |  |
| COc1cc(OC)c(NC(=O)c2ccc(Cc3cc4c(cc3OC)C(C)(C)CCC4(C)C)o2)c(OC)c1 [Compound 169] | 5 nM | 1.5 h | 7 nM | 27% (20 mg/kg)^1 |  | 12 nM | 970 nM | 1 h |  |  |  | bioavailability [1, 8]: 70% |
| Cc1cc2c(cc1Cc1ccc(C(=O)NC[C@H]3CC[C@H](C(=O)O)CC3)o1)C(C)(C)CCC2(C)C [Compound 12] | 7130 nM | 0.6 h | 3080 nM |  | 230 ± 37 nM | 230 nM |  |  | 210 nM | 7130 ± 1350 nM | 3080 ± 630 nM |  |
| CC(=O)N[C@H](Cc1ccc2ccccc2c1)C(=O)N[C@H](Cc1ccc(Cl)cc1)C(=O)N[C@H](Cc1cccnc1)C(=O)N[C@@H](CO)C(=O)N[C@@H](CCCCNC(=O)c1cccnc1)C(=O)N[C@H](CCCCNC(=O)c1cccnc1)C(=O)N[C@@H](CC(C)C)C(=O)N[C@@H](CCCCNC(C)C)C(=O)N1CCC[C@H]1C(=O)N[C@H](C)C(N)=O [Antide, reference compound] (Ac-[d2Nal][dPhe(4-Cl)][d3Pal]SK(Nicotinoyl)[dK](Nicotinoyl)L[Lys(iPr)]P[dA]-NH2) |  |  |  |  | 0.67 ± 0.09 nM |  |  |  |  | 0.25 ± 0.05 nM | 0.19 ± 0.04 nM |  |
| Cc1cc2c(cc1Cc1ccc(C(=O)NC[C@H]3CC[C@H](CNC(=N)N)CC3)o1)C(C)(C)CCC2(C)C [Compound 10] | 1400 nM |  | 390 nM |  | 130 ± 24 nM | 130 nM |  |  | 20 nM | 1400 ± 440 nM | 390 ± 10 nM |  |

Now from value to molecule, other results behind:

| IC50 (mouse GnRH receptor; read-out: mGnRH IC50) | half-life [1, 3] | IC50 (rat GnRH receptor; read-out: rGnRH IC50) | Fp.o. [1, 9] | SMILES | IC50 (human GnRH receptor; [2]) | IC50 (human GnRH receptor; read-out: hGnRH IC50) | Cmax [1, 4] | Tmax [1, 4] | IC50 (human GnRH receptor; [14]) | IC50 (mouse GnRH receptor; [15]) | IC50 (rat GnRH receptor; [16]) | other results |
| --- | --- | --- | --- | --- | --- | --- | --- | --- | --- | --- | --- | --- |
| 13 nM |  | 2.8 nM |  | COc1cc(OC)c(NC(=O)c2ccc(Cc3cc(C(C)(C)C)ccc3C)o2)c(OC)c1 [Compound 200] |  | 42 nM |  |  |  |  |  | Cmax [1, 5]: 960 nM; Tmax [1, 5]: 1.5 h; half-life [1, 6]: 2 h; Fp.o. [1, 7]: 33% (10 mg/kg)^10 |
| 7.3 nM | 2.2 h | 5.7 nM | 0 (20 mg/kg)^9% | COc1cc(OC)c(NC(=O)c2ccc(Cc3cc4c(cc3C)C(C)(C)CCC4(C)C)o2)c(OC)c1C#N [Compound 177] |  | 7.4 nM |  |  |  |  |  | bioavailability [1, 8]: 8% |
| 2.7 nM | 4.1 h | 2.5 nM |  | COc1cc(OC)c(NC(=O)c2ccc(Cc3cc4c(cc3C)CCCC4(C)C)o2)c(OC)c1 [Compound 183] |  | 6.8 nM |  |  |  |  |  | Cmax [1, 5]: 510 nM; Tmax [1, 5]: 1 h; half-life [1, 6]: 3.6 h; Cmax [1, 17]: 350 nM; Tmax [1, 17]: 1 h; Fp.o. [1, 7]: 37% (10 mg/kg)^10; Fp.o. ([1]; rat male, vehicle per footnote): 29% (10 mg/kg)^10 |
| 50 nM | 3 h | 9 nM |  | Cc1cc2c(cc1Cc1ccc(C(=O)NCC3CCCC(CNc4nccc(NCC5CCCO5)n4)C3)o1)C(C)(C)CCC2(C)C (stereo not shown) [Compound 11] | 190 ± 40 nM | 190 nM |  |  | 80 nM | 50 ± 10 nM | 9 ± 0.3 nM | Cmax [1, 17]: 150 nM; Tmax [1, 17]: 1.5 to 3.5 h; concentration at 4 h ([1]; rat, plasma, iv, four hours after i.v. injection, 10 mg/kg): 100 to 200 nM |
| 6 nM | 0.967 h | 6 nM |  | Cc1cc2c(cc1Cc1ccc(C(=O)NCc3cccc(CNc4nccc(NCC5CCCO5)n4)c3)o1)C(C)(C)CCC2(C)C (stereo not shown) [Compound 70] |  | 50 nM |  |  |  |  |  |  |
| 10 nM | 1.1 h | 6 nM | 4% (20 mg/kg)^1 | Cc1cc2c(cc1Cc1ccc(C(=O)NCc3nc4ccccc4[nH]3)o1)C(C)(C)CCC2(C)C [Compound 48] |  | 50 nM | 330 nM | 1.5 h | 40 nM |  |  |  |
| 8.6 nM | 2 h | 4.7 nM | 6% (20 mg/kg)^4 | Cc1cc2c(cc1Cc1ccc(C(=O)NCc3cccc(CNc4ccnc(NC[C@@H]5CCCO5)n4)c3)o1)C(C)(C)CCC2(C)C [Compound 136] |  |  | 240 nM | 2 h |  |  |  | Cmax [1, 10]: 240 nM; Tmax [1, 10]: 2.5 h; half-life [1, 6]: 3.2 h; Tmax [1, 12]: 4 h; Tmax ([1]; male, rat, plasma, 20 mg/kg, rat male, p.o. 20 mg/kg, in PG): 3.5 h; bioavailability ([1]; plasma, other: portal vein infusion, rat, portal vein infusion 20 mg/kg, read-out: Portal vein infusion: bioavailable): 36%; Fp.o. [1, 13]: 8% (20 mg/kg)^1 |

— patent US7101878B1 (Agouron Pharmaceuticals, Inc., priority 1998, dated 2006)
